System: 6-OHDA-lesioned juvenile rats
Experiment: Locomotor activity of juvenile rats with neonatal 6-OHDA lesions (model of ADHD)
Type: in vivo, rat
Experimental: The behavioral effects of (1R,5S)-(+)-1-(naphthalen-2-yl)-3-azabicyclo[3.1.0]hexane were evaluated in a model of ADHD, which can be simulated in juvenile rates with neonatal 6-hydroxydopamine (6-OHDA) lesions (Davids et al., 2003). In this animal model, the NE neurons are protected from the neurotoxic effects of 6-OHDA by pretreatment with the NE transporter inhibitor desipramine, so the NE system is largely intact and can respond to NE transporter inhibitors (Davids et al., 2002). Furthermore, the 6-OHDA lesions produce learning and memory deficits in learning models including the T maze, and active and passive avoidance tasks (Shaywitz et al., 1978; Wool et al., 1987; Takasuna and Iwasaki, 1996). Performance in these learning and memory models was improved by administration of stimulants (Shaywitz et al., 1978; Wool et al., 1987). Thus, this model incorporates both hyperactivity and learning deficits found in ADHD.
Methods of lesioning neonatal rats with 6-OHDA were carried out as detailed in Zhang et al. (2001). Briefly, on postnatal day 1 (PD 1), male Sprague-Dawley rat pups were randomly assigned to a nursing dam (10/dam). On PD 5, pups receive a subcutaneous injection of 25 mg/kg desipramine hydrochloride to protect noradrenergic neurons, followed in 45 min. by randomly assigned intracisternal injection of vehicle or 6-OHDA hydrobromide (100 μg free base) under hypothermic anesthesia. Pups were returned to nursing dams immediately after the intracranial injections. Locomotor activity was monitored individually for 90 min. in the periadolescent period on PD 25, using a microcomputer controlled infrared photobeam activity monitoring system. Locomotor activity was defined as breaking of consecutive photobeams and the activity accumulated in 5 minute bins. Behavioral testing was conducted in a novel environment (transparent plastic cages containing fresh bedding) within a grid of horizontal infrared beams. Each dose of (1R,5S)-(+)-1-(naphthalen-2-yl)-3-azabicyclo[3.1.0]hexane (1, 3 and 10 mg/kg) or methylphenidate (3 mg/kg) was dissolved in saline and given i.p. immediately prior to testing. The effects of sham versus 6-OHDA lesions on dopamine neurons in rats were quantified as decrements of DA transporters labeled with [31-1]2-(3-carbomethoxy-3-β-[4′-iodophenyl]tropane ([^3H]β-CIT), a selective DA transporter radioligand (Kula et al. 1999). Sections were preincubated (60 min., room temp [RT]) in 50 mM Tris-HCl buffer (pH 7.7) containing 120 mM NaCl and 4 mM MgCl2, then in fresh buffer (60 min) containing 2 nM [3H](3-CIT. Nonspecific binding was defined with 1 μM GBR-12909. Slides were then washed (2×5 min) in ice-cold buffer, dipped in ice-cold water, and air-dried. Radiolabeled slides and calibrated [^3H]standards were exposed to [^3H]sensitive films for 10-14 d at 4° C. Tritium-sensitive Hyperfilms were developed and fixed in Kodak D-19 for 5 min. at RT. Images were quantified with a computer-controlled MCID image analyzer. Brain regions of interest were outlined and their optical density was measured with two sections representing total binding, with two samples representing nonspecific binding. Optical density of sampled regions was measured and the amount of ligand bound within each area was calculated as nCi/mg tissue. Mean values of non-specific binding in each region were subtracted from the mean total binding to determine specific binding, which was converted into fmol/mg of radioligand bound.

c1ccc2cc([C@]34CNC[C@H]3C4)ccc2c1 [(1R,5S)-(+)-1-(naphthalen-2-yl)-3-azabicyclo[3.1.0]hexane]
time over which locomotor activity was significantly reduced (1 mg/kg i.p., PD 25, 90 min test, vs saline): 35 min
time over which locomotor hyperactivity was significantly attenuated (3 mg/kg i.p., PD 25, 90 min test): 45 min
time over which locomotor activity was significantly reduced (10 mg/kg i.p., PD 25, 90 min test): 90 min
effect on locomotor hyperactivity (1, 3 and 10 mg/kg i.p.): dose-dependently inhibited the locomotor hyperactivity
locomotor activity (FIGS. 7A and 7B) (6-OHDA-lesioned juvenile rats at PD25, p<0.05 versus vehicle): reduced locomotor activity
